These results are taken from patent publication US20240053346A1, “FLUORESCENT DYE AND METHOD FOR DETECTING TUMOR CELLS” (NATIONAL UNIVERSITY CORPORATION EHIME UNIVERSITY, priority 2020, published 2024).

Read-outs that look alike come from different tables or passages of the source.

The subject of data set [1] is extramammary Paget's disease lesion tissue. The data set can be described thus: Test Example 3: staining with various SC compounds, two-photon microscopy. As to conditions: cleared Paget's disease lesion tissue; for imaging performance for fluorescence observation (rank): judged by fluorescence intensity and contrast of staining. As for the experimental part: (§1) The staining solution of Test Examples 1 and 2 was prepared by dissolving PK in DMSO at 1 mg/mL. Each of staining solutions of Test Example 3 and Test Example 4 was a DMSO solution containing 1 mM of an SC compound, and was diluted 100 times for use of staining.
(§2) As the skin normal part tissue, the extramammary Paget's disease lesion tissue, and the melanoma lesion tissue used in Test Examples, whole tissue sections of the tissues obtained by excision were used. A dermatologist has confirmed in advance the identification of each tissue. Also, a normal part tissue and a tumor tissue of the rectum were also prepared by whole-sectioning of the tissues obtained by excision, and a specialist has confirmed the identification of each tissue. The collection and use of the tumor tissues were approved by the Clinical Research Ethics Review Board at Ehime University Hospital (No. 1802009) and were conducted according to its study protocol.
(§3) For microscopy, a two-photon microscope AIR MP+(NIKON) was used. In the measurement, a 960 nm laser light source and a 495 nm filter were used for PK, and a 561 nm filter was used for PI. Scanning was performed to a depth of 100 μm of the sample. The three-dimensional reconstructed image is obtained by processing the obtained data with the software included.
(§4) Normal part tissue of the skin and extramammary Paget's disease lesion tissue cleared by LUCID method in the same manner as in Test Example 2 were stained with a staining solution containing PK, PC, Nile Red, or POLARIC. Each stained tissue section was observed according to the method of two-photon microscopy of Test Example 1. The images were produced by coloring a fluorescent wavelength of 492 nm or less in cyan, 500 to 550 nm in green, 560 to 593 nm in yellow, and 593 nm or more in red. Brightness and contrast of the illustrated images were appropriately corrected.

Data set [2] deals with melanoma lesion tissue of the skin. The description is as above. The note with it: for imaging performance for fluorescence observation (rank): cleared melanoma lesion tissue. As for the experimental part:
as §1, §2, §3, §4
Melanoma lesion tissue of the skin cleared by the same method were similarly stained and observed with a two-photon microscope.

The conditions of data set [3]: cited from earlier work.
Data set [4] has as its system extramammary Paget's disease lesion tissue (Paget cells). The data set can be described thus: Test Example 2: PK staining of cleared three-dimensional tissue, two-photon microscopy. As for the experimental part:
as §1, §2, §3
(§5) Derived extramammary Paget's disease lesion tissue having a thickness of 500 μm and malignant melanoma lesion tissue having a thickness of 100 μm were subjected to a clearing treatment without being subjected to fixation and thinly slicing, and then stained with PK and propidium iodide (PI). Clearing treatment was performed by using LUCID method, according to the procedure described in Sawada K, Kawakami R, Shigemoto R, and Nemoto T. Eur. J. Neurosci., 2018, Vol. 47, No. 9, 1033-1042. The cleared tissue was stained with a PK staining as in Test Example 1. PI staining was performed by a method usually performed in tissue staining. As conditions for microscopy, the same conditions as in Test Example 1 were used for detection of PK signals.

The test system of data set [5] is malignant melanoma lesion tissue (melanoma cells). Described as above. The note with it: cleared tissue 100 μm thick, LUCID method, 495 nm. How it is done:
as §1, §2, §3, §5

In data set [6] the test system is extramammary Paget's disease lesion tissue, tumor cells (Paget cells). The experiment in a line: Test Example 1: PK staining of thin sliced section, two-photon microscopy. How it is done: as §1, §2
The extramammary Paget's disease lesion tissue and the normal part tissue were embedded in paraffin and then cut out to prepare tissue sections. The preparation of the sections (thickness: 5 μm) was performed by the procedure usually performed in histopathological examination. For staining with the PK staining solution, deparaffinization was performed by a conventional method, and then staining was performed by immersion in the PK staining solution at room temperature for several days to one week. In practice, the tissues were sufficiently stained by immersion in the PK staining solution at room temperature for 2 to 3 days.
as §3

Data set [7] concerns well-differentiated adenocarcinoma lesion tissue of the rectum. The data set can be described thus: Test Example 4: PK and Hoechst staining of rectum, two-photon microscopy. As to conditions: cleared by LUCID method, co-stained with Hoechst. As for the experimental part: as §1, §2
For microscopy, a two-photon microscope AIR MP+(NIKON) was used. In the measurement, a 960 nm laser light source and a 495 nm filter were used for PK, and a 561 nm filter was used for PI. Scanning was performed to a depth of 100 μm of the sample. The three-dimensional reconstructed image is obtained by processing the obtained data with the software included. […]

The test system of data set [8] is normal rectal mucosal epithelium (columnar epithelium). The data set is described as above. As to conditions: cleared by LUCID method, co-stained with Hoechst. As for the experimental part:
The staining solution of Test Examples 1 and 2 was prepared by dissolving PK in DMSO at 1 mg/mL. […]
as §2, §3
The normal part tissue and the well-differentiated adenocarcinoma lesion tissue of the rectum cleared by LUCID method in the same manner as in Test Example 2 were stained with PK and Hoechst. […]

A short description of data set [9]: Measurement of photophysical properties of PC in organic solvent and phosphate buffer (absorption spectrum, fluorescence spectrum, fluorescence quantum yield). It counts as physicochemical. The note with it: 20 mM phosphate buffer (pH 7.4) at 25° C.
The mark [10] stands for this setting: 5 μm paraffin section, 960 nm laser, 495 nm filter.

Regarding `CCN(CC)c1ccc2nc3c4ccccc4c(=O)cc-3oc2c1` [Nile Red], in [1], the “fluorescence intensity of the raw image” value was “lower than those of PK and PC”; the “imaging performance for fluorescence observation (rank)” value (from here on “imaging performance”) is “followed by PK, Nile Red, and POLARIC in this order”. In addition, the “shift of the fluorescence wavelength due to solvatochromism” value in data set [2] (Test Example 3 stained tissue) is given as “relatively small”. The “imaging performance” value in [2] is “followed by PK, POLARIC, and Nile Red in this order”.
For the compound `CC(=O)c1ccc2ccc3c(N4CCCCC4)ccc4ccc1c2c43` [PK, 1-Acetyl-6-piperidylpyrene], the absorption maximum wavelength in data set [3] (20 mM phosphate buffer (pH 7.4) at room temperature) is reported as 407 nm. The “fluorescence maximum wavelength λDMSO” value in data set [3] (DMSO) is on record as 558 nm. Also, in data set [3] (methanol), the “fluorescence maximum wavelength λMet” value is given as 593 nm. In addition, the “fluorescence maximum wavelength λHep” value in [3] (n-heptane) is on record as 474 nm. Further, in data set [3] (toluene), the “fluorescence maximum wavelength ΔTol” value is reported as 503 nm. Further, the “detection of tumor cells (Paget cells)” value in data set [4] (cleared tissue 500 μm thick, LUCID method, 495 nm) is listed as “successfully detected even when they were scattered one by one”. Further, the “signals in normal cells of the epidermis, dermis, and hair follicle” value in data set [4] (normal cells within the observed lesion tissues of Test Example 2) was “significantly observed in all of these cells”. In addition, the “fluorescence signal in malignant melanoma cells” value in [5] was “not observed”. For the same compound, the “imaging performance” value in [1] is “followed by PK, Nile Red, and POLARIC in this order”. Moreover, in data set [6] (setting [10]), the “distinction of tumor cells from normal cells” value is “tumor cells can be distinguished from normal cells”; the “fluorescence signal in the parts where the tumor cells (Paget cells) exist” value was “the fluorescence wavelength shifted and the signal level decreased”. In addition, in data set [6] (thin sliced section), the “distribution of the dye in cells” value is recorded as “inserted into cell membranes”. In addition, the “staining of rectal tumor lesion” value in [7] is reported as “cytoplasmic staining property by PK staining was high”. Besides, the “staining of normal rectal mucosal epithelium” value in data set [8] is listed as “cell membranes were positive for PK staining, cytoplasm was poorly stained”. Moreover, the “imaging performance” value in [2] was “followed by PK, POLARIC, and Nile Red in this order”.
As to `CCCC(=O)/C=C/c1ccc2ccc3c(N4CCCCC4)ccc4ccc1c2c43` [compound A, (E)-1-(6-(piperidin-1-yl)pyren-1-yl)hexa-1-en-3-one], in [1], the “imaging performance” value is on record as “best performance”. In data set [9], this compound showed an absorption maximum wavelength of 421 nm and a fluorescence maximum wavelength of 621 nm. The “imaging performance” value in [2] is “best performance”.
